Values quoted from earlier work, collected in patent US20170095440A1, “METHOD OF TREATING CANINE PANCREATITIS” (CK9, LLC, priority 2014, published 2017).

Tested on: serine protease
Conditions: hydrolysis products of Camostat Mesilate; cited from earlier work

Row | Compound | Anti-proteolytic activity
1 | N=C(N)Nc1ccc(C(=O)Oc2ccc(CC(=O)O)cc2)cc1 [GBPA, 4-(4-guanidino-benzoyloxy) phenylacetic acid] | active anti-proteolytic metabolite
2 | N=C(N)Nc1ccc(C(=O)O)cc1 [GBA, 4-guanidinobenzoic acid] | non-active
